Source: US20240391931A1 (Bristol-Myers Squibb Company, priority 2021, published 2024)

Legend:
EGFR WT = biological target: T1, EGFR WT (Homo sapiens, UniProt P00533); test: Enzymatic assay EGFR WT (method c); type: biochemical; conditions: [EGFR WT]=2 nM, [ATP]=1 mM, [Peptide 22]=1 μM
T1 construct: purchased Thermo Fisher, Carlsbad, CA ERBB1 PR7295B
Description: (§1) A 2× stock solution of HER2 WT (ERBB2 0108-0000-1; ProQinase, Freiburg, Germany) corresponding to method a, was prepared as described below. Alternatively, a 2× stock solution of HER2YVMA (custom purification; Viva biotech, Shanghai, China) corresponding to method b, was prepared as described below. For method c, a 2× stock of EGFR (ERBB1 PR7295B, Thermo Fisher, Carlsbad, CA) was prepared as described below. All 2× solutions were prepared in buffer containing 50 mM HEPES, pH 7.5, 10 mM MnCl2, MgCl2, 0.005% Tween 20, 1 mM TCEP. 25 ul of 2× enzyme solution was added to a Seahorse low volume 384-well polypropylene assay plate (201288-100, Seahorse Bioscience, Chicopee, MA) containing 1 μl of compound serially diluted in 50% DMSO. To initiate the reaction, 25 μl of solution containing 2× final concentration of ATP and ProfilerPro Peptide 22 (760366, Perkin Elmer Hopkinton, MA) was added to each well. The reactions were separated on an LC3000 (Caliper Life Sciences) or a LabChip EZReader (Perkin Elmer) in kinetic mode.
(§2) At the conclusion of each assay, the data were exported from the instrument as a .rda file (LC3000) and processed in proprietary software, EZReviewer, which determines the percent of substrate converted to product within a given cycle as (P/P+S)*100 by measuring the amplitude of substrate and product peaks. Cycle time varied with amount of compounds tested between 8 and 12 cycles. Initial velocity (0-3600 s) from each reaction was determined from the slope of a plot of percent conversion at each cycle versus time (seconds). Percent inhibition was determined by dividing the slope of each reaction by the uninhibited control using 100*(1-(x/uninhibited control)). IC50 estimates were obtained by plotting the concentration of inhibitor versus percent inhibition in GraphPad Prism (GraphPad Software, San Diego, CA) using log[inhibitor] versus Response (Variable Slope Model); Y=Min+((Max-Min)/(1+((IC50/x)^Hillslope)))
(§3) • a) [HER2 WT]=12.5 nM, [ATP]=25 μM, [Peptide 22]=1 μM (ATP KMapp˜25 μM) • b) [HER2YVMA]=5 nM, [ATP]=25 μM, [Peptide 22]=1 μM (ATP KMapp˜15 μM) • c) [EGFR WT]=2 nM, [ATP]=1 mM, [Peptide 22]=1 μM (ATP KMapp˜25 μM)

HER2YVMA = HER2YVMA (Homo sapiens, UniProt P04626, INS775YVMA); test: Enzymatic assay HER2YVMA (method b); type: biochemical; design: purchased Viva biotech, Shanghai, China custom purification; conditions: [HER2YVMA]=5 nM, [ATP]=25 μM, [Peptide 22]=1 μM
Description: as §1, §2, §3

HER2 WT = biological target: T2, HER2 WT (Homo sapiens, UniProt P04626); test: Enzymatic assay HER2 WT (method a); type: biochemical; conditions: [HER2 WT]=12.5 nM, [ATP]=25 μM, [Peptide 22]=1 μM
T2 construct: purchased ProQinase, Freiburg, Germany ERBB2 0108-0000-1
Description: as §1, §2, §3

[1] = biological target: T3, HER2 wildtype (WT) protein (Homo sapiens, UniProt P04626); test: HER2 signaling (pHER2 Tyr1248/total HER2 MSD) in BT474 cells; type: cell-based; conditions: 1.5 hr compound, 1% FBS
T3 construct: BT474 and N87 cell lines which endogenously overexpress the HER2 wildtype (WT) protein; endogenous in cells; host or cells: BT474, N87
Description: In addition to the engineered cell lines, the following cell lines were used: BT474 (human breast carcinoma), N87 (human gastric carcinoma), NCI-H1781 (human lung adenocarcinoma), and A431 (human epidermoid carcinoma); all cell lines were obtained from the American Type Culture Collection (ATCC, Manassas, VA). NCI-H1781 were grown in complete RPMI 1640 (Life Technologies, Carlsbad, CA) supplemented with 15% fetal bovine serum (FBS, Life Technologies, Carlsbad, CA) and 1% Penicillin-Streptomycin (P/S, Life Technologies, Carlsbad, CA). N87 cells were grown in complete RPMI 1640 supplemented with 10% FBS and 1% P/S. BT474 and A431 cells were grown in DMEM (Life Technologies, Carlsbad, CA) supplemented with 10% FBS and 1% P/S. All cells were maintained and propagated in a humidified 5% CO2 incubator at 37° C.
HER2 signaling was assessed in BT474 and N87 cell lines which endogenously overexpress the HER2 wildtype (WT) protein, in NCI-H1781 cells which endogenously expresses a HER2 mutant protein containing a VC insertion in the kinase domain (HER2VC or G776delinsVC), and in engineered cell lines transduced to express the Her2 mutant protein containing the YVMA insertion (Hek293-HER2YVMA and BEAS2B-HER2YVMA).
BT474, N87, and NCI-H1781 were plated in 96-well tissue-culture treated plates (Corning Costar, Sigma-Aldrich) in full media and incubated overnight. Hek293-HER2YVMA and BEAS2B-HER2YVMA cells were plated in 96-well poly-D-lysine treated plates (BD Bioscience, San Jose, CA). For treatment with test compounds, the media was replaced with corresponding low serum media (1% FBS) containing test compound at 1.1, 0.37, 0.12, 0.041, 0.014, 0.005, 0.0014, 0.0005 μM or DMSO control (0.1%). Cells were incubated with compound for 1.5 hr at 37° C. After compound treatment, the media was removed and cells were lysed for 30 min on ice in complete MSD lysis buffer (prepared using MSD base lysis buffer (Meso-Scale Discovery) supplemented with cOmplete, EDTA-free Protease inhibitor cocktail (Roche), Phosphatase Inhibitor Cocktails 2 and 3 (Sigma-Aldrich), and 1 mM PMSF (Sigma-Aldrich)). Lysates were stored at −70° C. until further analysis.
HER2 signaling was evaluated using phospho (Tyr1248)/total ErbB2 whole cell lysate MSD plates (Meso-Scale Discovery, Gaithersburg, MD). The phospho HER2 signal was normalized to total HER2 for each sample; results are reported as % DMSO control. The normalized data was fitted using a sigmoidal curve analysis program (Graph Pad Prism version 6) with variable Hill slope to determine EC50 values.
The HER2 signaling results are provided in Table 4, under columns titled “BT474-pHER2 EC50”, “N87-pHER2 EC50”, and “NCI-H1781-pHER2 EC50”. Hek293-HER2YVMA ins fall under the heading “HEKYVMA-pHER2 EC50”, Ba/F3 HER2YVMA fall under the heading “Ba/F3 YVMA-pHER2 EC50” and BEAS2B-HER2YVMA fall under the heading “BEAS2B YVMA-pHER2 EC50”.

T1 sequence (P00533 25-1210): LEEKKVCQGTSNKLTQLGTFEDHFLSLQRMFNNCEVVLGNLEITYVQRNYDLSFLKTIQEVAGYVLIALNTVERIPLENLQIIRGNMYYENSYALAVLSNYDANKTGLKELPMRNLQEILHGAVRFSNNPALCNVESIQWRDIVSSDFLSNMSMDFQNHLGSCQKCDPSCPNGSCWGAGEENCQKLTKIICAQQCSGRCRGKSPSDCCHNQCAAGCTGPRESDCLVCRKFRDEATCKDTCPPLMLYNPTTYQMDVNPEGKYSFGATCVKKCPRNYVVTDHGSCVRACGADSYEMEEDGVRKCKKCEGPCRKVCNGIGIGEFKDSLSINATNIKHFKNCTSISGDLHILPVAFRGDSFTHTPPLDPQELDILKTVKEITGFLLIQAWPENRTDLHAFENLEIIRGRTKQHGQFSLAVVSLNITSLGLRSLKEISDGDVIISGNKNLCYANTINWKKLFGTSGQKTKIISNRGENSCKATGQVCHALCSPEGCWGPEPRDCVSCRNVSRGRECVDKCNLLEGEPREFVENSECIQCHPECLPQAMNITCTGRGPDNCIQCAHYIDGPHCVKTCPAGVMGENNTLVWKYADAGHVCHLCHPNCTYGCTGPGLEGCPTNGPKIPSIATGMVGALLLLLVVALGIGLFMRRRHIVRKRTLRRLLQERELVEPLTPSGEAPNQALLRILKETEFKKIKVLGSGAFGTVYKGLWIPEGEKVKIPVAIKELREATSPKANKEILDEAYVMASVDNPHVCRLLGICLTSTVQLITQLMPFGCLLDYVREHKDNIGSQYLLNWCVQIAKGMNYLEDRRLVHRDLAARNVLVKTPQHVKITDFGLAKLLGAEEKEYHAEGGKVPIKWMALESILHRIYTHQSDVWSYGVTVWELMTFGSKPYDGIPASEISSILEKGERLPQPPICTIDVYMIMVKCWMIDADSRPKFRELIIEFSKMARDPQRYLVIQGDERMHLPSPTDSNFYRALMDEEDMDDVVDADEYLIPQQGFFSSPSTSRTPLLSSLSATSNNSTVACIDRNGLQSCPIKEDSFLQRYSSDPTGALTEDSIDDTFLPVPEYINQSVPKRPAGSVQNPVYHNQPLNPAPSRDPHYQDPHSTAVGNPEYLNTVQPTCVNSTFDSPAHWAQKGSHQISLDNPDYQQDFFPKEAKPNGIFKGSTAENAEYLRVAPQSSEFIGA
Chain of HER2YVMA (P04626 with tags, fused parts or gaps INS775YVMA): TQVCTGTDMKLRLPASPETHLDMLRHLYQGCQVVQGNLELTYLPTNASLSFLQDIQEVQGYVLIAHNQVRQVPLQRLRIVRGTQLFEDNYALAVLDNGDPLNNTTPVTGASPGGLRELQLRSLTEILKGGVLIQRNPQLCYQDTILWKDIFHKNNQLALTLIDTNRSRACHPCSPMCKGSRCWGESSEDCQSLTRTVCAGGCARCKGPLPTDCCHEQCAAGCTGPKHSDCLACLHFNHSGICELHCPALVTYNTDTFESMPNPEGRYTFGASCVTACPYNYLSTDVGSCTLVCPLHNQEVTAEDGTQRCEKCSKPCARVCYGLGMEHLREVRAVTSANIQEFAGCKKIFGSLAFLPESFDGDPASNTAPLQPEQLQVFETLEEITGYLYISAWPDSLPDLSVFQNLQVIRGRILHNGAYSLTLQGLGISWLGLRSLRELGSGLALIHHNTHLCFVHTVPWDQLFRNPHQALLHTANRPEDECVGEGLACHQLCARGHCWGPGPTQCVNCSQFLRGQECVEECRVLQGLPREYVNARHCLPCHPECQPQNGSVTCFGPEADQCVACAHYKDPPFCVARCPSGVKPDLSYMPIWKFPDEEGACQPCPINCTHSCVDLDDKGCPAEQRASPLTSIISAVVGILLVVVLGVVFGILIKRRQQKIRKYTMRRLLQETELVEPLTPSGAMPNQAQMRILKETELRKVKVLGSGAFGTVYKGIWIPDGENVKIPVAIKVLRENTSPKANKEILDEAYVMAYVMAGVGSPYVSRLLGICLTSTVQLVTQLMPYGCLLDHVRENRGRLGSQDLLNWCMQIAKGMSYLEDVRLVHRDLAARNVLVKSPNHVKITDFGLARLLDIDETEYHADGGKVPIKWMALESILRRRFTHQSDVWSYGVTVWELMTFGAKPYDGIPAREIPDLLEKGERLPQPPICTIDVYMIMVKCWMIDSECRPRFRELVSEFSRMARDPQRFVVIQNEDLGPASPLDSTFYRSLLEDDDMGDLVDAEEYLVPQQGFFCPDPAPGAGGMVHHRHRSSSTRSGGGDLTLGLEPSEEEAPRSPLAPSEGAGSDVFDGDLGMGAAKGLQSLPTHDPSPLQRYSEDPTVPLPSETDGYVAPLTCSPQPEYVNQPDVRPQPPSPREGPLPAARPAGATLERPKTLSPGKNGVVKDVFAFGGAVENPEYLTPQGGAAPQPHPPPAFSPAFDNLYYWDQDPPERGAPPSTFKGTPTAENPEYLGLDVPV
T3 sequence (P04626 23-1255): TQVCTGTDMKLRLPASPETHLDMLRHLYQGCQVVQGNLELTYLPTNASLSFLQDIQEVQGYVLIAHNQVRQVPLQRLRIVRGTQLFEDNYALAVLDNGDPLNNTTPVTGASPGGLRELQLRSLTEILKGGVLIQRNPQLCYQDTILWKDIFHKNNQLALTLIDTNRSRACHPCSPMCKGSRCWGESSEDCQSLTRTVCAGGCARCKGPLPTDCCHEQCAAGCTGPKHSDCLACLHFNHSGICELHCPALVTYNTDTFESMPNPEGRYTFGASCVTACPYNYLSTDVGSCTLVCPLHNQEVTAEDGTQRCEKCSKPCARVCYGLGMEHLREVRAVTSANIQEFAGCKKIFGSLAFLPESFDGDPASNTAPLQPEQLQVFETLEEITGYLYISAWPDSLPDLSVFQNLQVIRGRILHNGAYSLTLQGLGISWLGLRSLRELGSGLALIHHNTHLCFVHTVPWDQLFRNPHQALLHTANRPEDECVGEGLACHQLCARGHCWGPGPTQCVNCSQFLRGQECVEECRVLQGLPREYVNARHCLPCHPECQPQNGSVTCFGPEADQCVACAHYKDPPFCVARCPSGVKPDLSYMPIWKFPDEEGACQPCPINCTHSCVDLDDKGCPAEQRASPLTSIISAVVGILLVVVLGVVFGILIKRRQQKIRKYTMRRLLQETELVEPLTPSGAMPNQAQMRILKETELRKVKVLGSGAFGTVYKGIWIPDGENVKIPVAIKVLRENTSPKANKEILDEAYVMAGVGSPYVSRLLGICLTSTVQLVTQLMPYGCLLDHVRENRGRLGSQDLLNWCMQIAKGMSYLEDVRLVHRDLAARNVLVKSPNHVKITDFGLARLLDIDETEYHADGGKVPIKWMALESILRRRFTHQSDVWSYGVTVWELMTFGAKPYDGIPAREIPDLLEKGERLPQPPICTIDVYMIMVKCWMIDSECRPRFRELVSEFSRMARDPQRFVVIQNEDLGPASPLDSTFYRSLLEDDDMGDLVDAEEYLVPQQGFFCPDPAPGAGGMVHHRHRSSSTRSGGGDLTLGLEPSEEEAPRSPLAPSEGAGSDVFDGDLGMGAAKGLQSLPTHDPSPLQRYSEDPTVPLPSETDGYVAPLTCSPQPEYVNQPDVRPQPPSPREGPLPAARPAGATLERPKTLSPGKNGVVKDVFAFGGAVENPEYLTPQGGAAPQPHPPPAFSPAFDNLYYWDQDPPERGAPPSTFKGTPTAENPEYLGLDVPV
T2 sequence (P04626 23-1255): as above

Row | IC50 (EGFR WT) | IC50 (HER2YVMA) | IC50 (HER2 WT) | EC50 [1] | Compound
1 | > 10 µM | < 0.1 µM | < 0.1 µM | < 0.1 µM | C=CC(=O)N1CCc2c(sc3ncnc(Nc4ccc(Oc5cccnc5)c(Cl)c4)c23)C1 [Compound 6, 1-(4-((3-chloro-4-(pyridin-3-yloxy)phenyl)amino)-5,8-dihydropyrido[4′,3′:4,5]thieno[2,3-d]pyrimidin-7(6H)-yl)prop-2-en-1-one]
2 | 1 to 10 µM | < 0.1 µM | < 0.1 µM | < 0.1 µM | C=CC(=O)N1CCc2c(sc3ncnc(Nc4ccc(Oc5cccnc5)c(C)c4)c23)C1 [Compound 11, 1-(4-((3-methyl-4-(pyridin-3-yloxy)phenyl)amino)-5,8-dihydropyrido[4′,3′:4,5]thieno[2,3-d]pyrimidin-7(6H)-yl)prop-2-en-1-one]
3 | > 10 µM | 0.1 to 1 µM | < 0.1 µM | < 0.1 µM | Cc1cc(Nc2ncnc3sc4c(c23)CCN(C(=O)/C=C/CN2CCOCC2)C4)ccc1Oc1ccc2ncnn2c1 [Compound 12]
4 | > 10 µM | 0.1 to 1 µM | < 0.1 µM | < 0.1 µM | Cc1ccc(Oc2ccc(Nc3ncnc4sc5c(c34)CCN(C(=O)/C=C/CN3CC4CCC(C3)O4)C5)cc2C)cn1 [Compound 13]
5 | > 10 µM | < 0.1 µM | < 0.1 µM | < 0.1 µM | Cc1ccc(Oc2ccc(Nc3ncnc4sc5c(c34)CCN(C(=O)/C=C/CN3CC4CCC3C4)C5)cc2C)cn1 (stereo not drawn) [Compound 14]
6 | > 10 µM | < 0.1 µM | < 0.1 µM | < 0.1 µM | O=C(/C=C/CN1CCOCC1)N1CCc2c(sc3ncnc(Nc4ccc(Oc5ccc6ncnn6c5)c(Cl)c4)c23)C1 [Compound 18]
7 | 1 to 10 µM | < 0.1 µM | < 0.1 µM | < 0.1 µM | Cc1cc(Nc2ncnc3sc4c(c23)CCN(C(=O)/C=C/CN(C)C)C4)ccc1Oc1ccc2scnc2c1 [Compound 107, (E)-1-(4-((4-(benzo[d]thiazol-5-yloxy)-3-methylphenyl)amino)-5,8-dihydropyrido[4′,3′:4,5]thieno[2,3-d]pyrimidin-7(6H)-yl)-4-(dimethylamino)but-2-en-1-one]
8 | > 10 µM | < 0.1 µM | < 0.1 µM | < 0.1 µM | Cc1ccc(Oc2ccc(Nc3ncnc4sc5c(c34)CN(C(=O)/C=C/CN(C)C)CC5)cc2C)cn1 [Compound 108, (E)-4-(Dimethylamino)-1-(4-((3-methyl-4-((6-methylpyridin-3-yl)oxy)phenyl)amino)-7,8-dihydropyrido[3′,4′:4,5]thieno[2,3-d]pyrimidin-6(5H)-yl)but-2-en-1-one]
9 | > 10 µM | < 0.1 µM | < 0.1 µM | < 0.1 µM | Cc1cc(Nc2ncnc3sc4c(c23)CN(C(=O)/C=C/CN(C)C)C4)ccc1Oc1ccc2ncnn2c1 [Compound 111, (E)-1-(4-((4-([1,2,4]Triazolo[1,5-a]pyridin-6-yloxy)-3-methylphenyl)amino)-5H-pyrrolo[3′,4′:4,5]thieno[2,3-d]pyrimidin-6(7H)-yl)-4-(dimethylamino)but-2-en-1-one]

Row | Compound | IC50 (EGFR WT) | IC50 (HER2YVMA) | IC50 (HER2 WT) | EC50 [1]
10 | COc1cc(Nc2ncnc3sc4c(c23)CCN(C(=O)/C=C/CN(C)C)C4)ccc1Oc1ccccc1 [Compound 7, (E)-4-(dimethylamino)-1-(4-((3-methoxy-4-phenoxyphenyl)amino)-5,8-dihydropyrido[4′,3′:4,5]thieno[2,3-d]pyrimidin-7(6H)-yl)but-2-en-1-one] | > 10 µM | < 0.1 µM | < 0.1 µM | < 0.1 µM
11 | Cc1ccc(Oc2ccc(Nc3ncnc4sc5c(c34)CCN(C(=O)/C=C/CN(C)C)C5)cc2C)cn1 [Compound 8, (E)-4-(Dimethylamino)-1-(4-((3-methyl-4-((6-methylpyridin-3-yl)oxy)phenyl)amino)-5,6-dihydropyrido[4′,3′:4,5]thieno[2,3-d]pyrimidin-7(8H)-yl)but-2-en-1-one] | 1 to 10 µM | < 0.1 µM | < 0.1 µM | < 0.1 µM
12 | Cc1ccc(Oc2ccc(Nc3ncnc4sc5c(c34)CCN(C(=O)/C=C/CN3CC4CC(C3)O4)C5)cc2C)cn1 [Compound 15] | > 10 µM | 0.1 to 1 µM | < 0.1 µM | < 0.1 µM
13 | Cc1ccc(Oc2ccc(Nc3ncnc4sc5c(c34)CCN(C(=O)/C=C/CN3CCOCC3)C5)cc2C)cn1 [Compound 17, (E)-1-(4-((3-Methyl-4-((6-methylpyridin-3-yl)oxy)phenyl)amino)-5,6-dihydropyrido[4′,3′:4,5]thieno[2,3-d]pyrimidin-7(8H)-yl)-4-morpholinobut-2-en-1-one] | > 10 µM | < 0.1 µM | < 0.1 µM | < 0.1 µM
14 | Cc1cc(Nc2ncnc3sc4c(c23)CCN(C(=O)/C=C/CN(C)C)C4)ccc1Oc1ccc2nccn2c1 [Compound 109, (E)-4-(dimethylamino)-1-(4-((4-(imidazo[1,2-a]pyridin-6-yloxy)-3-methylphenyl)amino)-5,6-dihydropyrido[4′,3′:4,5]thieno[2,3-d]pyrimidin-7(8H)-yl)but-2-en-1-one] | > 10 µM | < 0.1 µM | 0.1 to 1 µM | < 0.1 µM
15 | Cc1cn2ccc(Oc3ccc(Nc4ncnc5sc6c(c45)CCN(C(=O)/C=C/CN(C)C)C6)cc3C)cc2n1 [Compound 110, (E)-4-(dimethylamino)-1-(4-((3-methyl-4-((2-methylimidazo[1,2-a]pyridin-7-yl)oxy)phenyl)amino)-5,8-dihydropyrido[4′,3′:4,5]thieno[2,3-d]pyrimidin-7(6H)-yl)but-2-en-1-one] | > 10 µM | < 0.1 µM | 0.1 to 1 µM | < 0.1 µM
